≈ marks a conversion by molar mass, not a printed value.

A short description of data set [1]: Thermodynamic solubility of the compound at pH 7.4. The settings on record: buffer, read-out: Therm_solubility. The class given is physicochemical.
The target in data set [2] is T1, Calcitonin-gene-related peptide receptor, CALCRL/RAMP1 (Homo sapiens, UniProt O60894+Q16602). Nature of the data set: Displacement of [3H]telcagepant from recombinant human CLR/RAMP1 expressed in Sf21 insect cell membranes measured after 60 mins by microbeta scintillation counting method.
Data set [3] can be described thus: Thermodynamic solubility of the compound at pH 6. The class given is physicochemical. The settings on record: buffer, read-out: Therm_solubility.
Data set [4] in a line: Clearance in rat at 2 mg/kg, iv using 100% acidified saline formulation. The class given is ADME, organism-based. Particulars: in vivo.
In data set [5] the target is T1, Calcitonin-gene-related peptide receptor, CALCRL/RAMP1. The experiment in a line: Antagonist activity at human CGRP receptor in human SK-N-MC cells assessed as inhibition of CGRP-induced cAMP production preincubated for 30 mins followed by CGRP addition and measured after 30 mins by HTRF assay. The class given is functional, cell-based.
Data set [6] is described as follows: Clearance in rat at 2 mg/kg, iv using 10% DMAC[…] Solutol HS15/80% saline formulation. Particulars: in vivo. Format: ADME, organism-based.
Data set [7] can be described thus: Clearance in rat at 0.5 mg/kg, iv. The class given is ADME, organism-based. Particulars: in vivo.

T1 sequence (O60894 whole entry): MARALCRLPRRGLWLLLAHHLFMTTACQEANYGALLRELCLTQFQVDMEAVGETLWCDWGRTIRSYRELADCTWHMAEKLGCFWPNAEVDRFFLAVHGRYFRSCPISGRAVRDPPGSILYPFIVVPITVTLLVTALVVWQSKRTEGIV
T1 sequence (Q16602 whole entry): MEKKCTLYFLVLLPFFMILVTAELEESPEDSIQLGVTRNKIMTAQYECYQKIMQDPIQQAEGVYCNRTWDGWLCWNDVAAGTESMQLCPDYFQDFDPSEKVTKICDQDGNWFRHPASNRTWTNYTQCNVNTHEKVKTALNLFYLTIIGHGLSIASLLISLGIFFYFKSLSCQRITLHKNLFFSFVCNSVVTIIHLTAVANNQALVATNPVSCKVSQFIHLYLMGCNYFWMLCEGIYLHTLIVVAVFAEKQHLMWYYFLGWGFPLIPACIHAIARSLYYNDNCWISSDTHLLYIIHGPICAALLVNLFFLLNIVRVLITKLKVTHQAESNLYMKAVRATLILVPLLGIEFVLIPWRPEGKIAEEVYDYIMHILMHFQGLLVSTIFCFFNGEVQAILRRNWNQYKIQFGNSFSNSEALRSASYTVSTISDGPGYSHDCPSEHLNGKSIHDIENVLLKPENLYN

For the molecule `Cc1cc(C[C@@H](NC(=O)N2CCC(n3c(=O)[nH]c4ncccc43)CC2)C(=O)N[C@@H](Cc2ccncc2)C(=O)N2CCN(c3ccncc3)CC2)cc2cn[nH]c12`, the solubility thermodynamic in data set [1] is 230 µM (≈ 174 µg/mL); in data set [3], 1770 µM (≈ 1340 µg/mL). Moreover, the Ki in data set [2] was 0.1 nM. The same molecule gave a clearance in data set [4] of 87 mL/min/kg. Also, in data set [5], the negative logarithm of the Kb (pKb) is 10.

In turn, `Cc1cc(C[C@@H](NC(=O)N2CCC(c3cc4ccccc4[nH]c3=O)CC2)C(=O)N[C@@H](CC2CCNCC2)C(=O)N2CCN(c3ccncc3)CC2)cc2cn[nH]c12` showed a clearance in data set [6] of 31 mL/min/kg. For the same molecule, in data set [3], the solubility thermodynamic amounted to 10 µM (≈ 7.73 µg/mL). The pKb in data set [5] is 9.8.

As to `Cc1cc(C[C@@H](NC(=O)N2CCC(n3c(=O)[nH]c4ncccc43)CC2)C(=O)N[C@@H](CCCCN)C(=O)N2CCN(c3ccncc3)CC2)cc2cn[nH]c12`, the Ki in data set [2] is 0.0251 nM. For the same molecule, the pKb in data set [5] was 11.

The molecule `O=C(N[C@@H](CC1CCNCC1)C(=O)N1CCN(c2ccncc2)CC1)[C@@H](Cc1cc(Br)c(O)c(Br)c1)NC(=O)N1CCC(N2Cc3ccccc3NC2=O)CC1` came in with a clearance in data set [6] of 21 mL/min/kg. Further, the pKb in data set [5] is 11.2.

In the case of `Cc1cc(C[C@@H](NC(=O)N2CCC(N3Cc4ccccc4NC3=O)CC2)C(=O)N[C@@H](CC2CCNCC2)C(=O)N2CCN(c3ccncc3)CC2)cc2cn[nH]c12`, in data set [6], the clearance was 6 mL/min/kg. Besides, in data set [5], the pKb is 10.1.

The molecule `O=C(N[C@@H](CC1CCNCC1)C(=O)N1CCN(c2ccncc2)CC1)[C@@H](Cc1cc(Br)c(O)c(Br)c1)NC(=O)N1CCC(n2c(=O)[nH]c3ncccc32)CC1` came in with a clearance in data set [6] of 28 mL/min/kg. Besides, the pKb in data set [5] was 10.8.

As to `NCCCC[C@H](NC(=O)[C@@H](Cc1cc(Br)c(O)c(Br)c1)NC(=O)N1CCC(N2Cc3ccccc3NC2=O)CC1)C(=O)N1CCN(c2ccncc2)CC1` [OLCEGEPANT], in data set [6], the clearance is 38 mL/min/kg. The pKb in data set [5] is 11.2.

In data set [7], `Cc1cc(C[C@@H](NC(=O)N2CCC(n3c(=O)[nH]c4ncccc43)CC2)C(=O)N[C@@H](CC2CCNCC2)C(=O)N2CCN(c3ccncc3)CC2)cc2cn[nH]c12` yielded a clearance of 55 mL/min/kg.

The record behind these values is ChEMBL document CHEMBL4610123, “Structure-Based Drug Discovery of N-((R)-3-(7-Methyl-1H-indazol-5-yl)-1-oxo-1-(((S)-1-oxo-3-(piperidin-4-yl)-1-(4-(pyridin-4-yl)piperazin-1-yl)propan-2-yl)amino)propan-2-yl)-2'-oxo-1',2'-dihydrospiro[piperidine-4,4'-pyrido[2,3-d][1,3]oxazine]-1-carboxamide (HTL22562): A Calcitonin Gene-Related …” (J Med Chem, 2020).
